26 molecules from patent US9045423B2, “Prophylactic and/or therapeutic agent for anemia comprising tetrahydroquinoline compound as active ingredient” (KOWA COMPANY, LTD., priority 2009, dated 2015) can be followed below.

In assay [1] the test system is K562 cells, a human proerythroblast cell line. Kind of assay: Hemoglobin production in K562 cells (fluorescence of the porphyrin ring). The conditions noted are these: for enhancement of hemoglobin production: drug concentration 20 μM; for activity at 6 µM: Homo sapiens, K562, 144 h, 6 μM test compound, 3 + 3 days incubation, non-stimulated state without compound = 100, read-out: amount of hemoglobin, % of control (6 μM). The format is cell-based. As to the method: K562 cells (obtained from ATCC), which is a human proerythroblast cell line, were inoculated at a concentration of 1×10^5 cells/1 mL in each well of a 24-well plate, using complete medium (RPMI-1640 medium containing 10% bovine fetal serum), and 1 μL of a test compound at a 1000-fold concentration was added to each well. Subsequently, the cells were incubated for 3 days in a CO2 incubator (37° C., 5% CO2). The medium was exchanged, and the cells were further incubated for 3 days. The cells were collected and counted. Subsequently, the amount of hemoglobin produced in the cells was determined by adjusting the number of cells to 3×10^5 cells, and measuring the fluorescence of the porphyrin ring. That is, the cells collected by centrifugation were suspended in 500 μL of 2 M oxalic acid, and were heated to boil for 30 minutes. The cells were cooled, and then the fluorescence intensity was measured by using a fluorescence microplate reader (Spectra MAX GeminiEM; Molecular Devices Corp.) ([…]). The amount of hemoglobin in a non-stimulated state where no compound was added was designated as 100-, and the amount of hemoglobin (% of control) produced as induced by each of the compounds was determined.

In assay [2] the test system is HepG2 cells derived from human liver cancer. Kind of assay: EPO production in HepG2 cells (EPO ELISA of culture supernatant). It is filed as cell-based. The conditions noted are these: for activity at 3 µM: HepG2, 3 μM test compound, 48 hrs, 4% oxygen, non-stimulated state without compound = 100%, read-out: amount of EPO production, % of control (3 μM). How it is done:
HepG2 cells derived from human liver cancer were inoculated in an amount of 5×10^4 cells per well on a 48-well plate, using minimum essential medium (MEM, Sigma-Aldrich Company) containing 10% bovine fetal serum. On the next day, the medium was exchanged with Dulbecco's modified eagle medium (DMEM (Sigma-Aldrich Company)) containing 10% bovine fetal serum without Phenol Red. Then, a test compound dissolved in DMSO was added thereto to obtain a final concentration of 3 μM or 10 μM, and the amount of medium was adjusted to 400 μL per well. The cells were incubated for 48 hrs in a CO2 incubator in which the oxygen concentration was adjusted to 4%, and then the culture supernatant was collected. The EPO concentration in the culture supernatant was immediately measured using an EPO ELISA kit (Roche Diagnostics GmbH). The method was carried out according to the operation manual.
The amount of EPO production in a non-stimulated state where no compounds were added, was designated as 100%, and the amount of EPO production (% of control) induced by each of the compounds was determined.
On the technique in general: ELISA stands for enzyme-linked immunosorbent assay.

In the case of `CC(=O)N1c2c(F)cccc2[C@H](Nc2ccccc2F)C[C@@H]1C` (relative stereo) [Compound 4, 1-Acetyl-8-fluoro-4-[(2-fluoro-phenyl)amino]-2-methyl-1,2,3,4-tetrahydroquinoline], the “enhancement of hemoglobin production” value in assay [1] is 162%. Consider `CC(=O)N1c2ccccc2[C@H](OCc2ccccc2)C[C@@H]1C` (relative stereo) [Compound 36, 1-Acetyl-2-methyl-4-benzyloxy-1,2,3,4-tetrahydroquinoline], for which the “enhancement of hemoglobin production” value in assay [1] is reported as 143%.

As for `CC(=O)N1c2ccc(C(N)=O)cc2[C@H](Nc2ccc(NS(C)(=O)=O)cc2)C[C@@H]1C` (relative stereo) [Compound 102, 1-Acetyl-4-[(4-methanesulfonyl-aminophenyl)amino]-2-methyl-1,2,3,4-tetrahydroquinoline-6-carbox-amide], the “enhancement of hemoglobin production” value in assay [1] stood at 115%. In the case of `CC(=O)N1c2ccc(C(=O)O)cc2C(Nc2ccc(Cl)cc2)CC1C` (stereo not drawn) [Compound 42, 1-Acetyl-4-[(4-chlorophenyl)-amino]-2-methyl-1,2,3,4-tetrahydro-quinoline-6-carboxylic acid], the “enhancement of EPO production” value in assay [2] (final concentration 10 μM, non-stimulated state = 100%) amounted to 138%. On to `CC(=O)N1c2c(Br)cccc2C(Nc2ccccc2)CC1C` (stereo not drawn) [Compound 63, 1-Acetyl-8-bromo-4-phenylamino-2-methyl-1,2,3,4-tetrahydroquino-line], for which the “enhancement of hemoglobin production” value in assay [1] turned out to be 260%.

For the molecule `CC(=O)N1c2ccc(NS(C)(=O)=O)cc2C(Nc2ccc(N3CCOCC3)cc2)CC1C` (stereo not drawn) [Compound 98, 1-Acetyl-6-methanesulfonylamino-2-methyl-4-[(4-morpholinophenyl)-amino]-1,2,3,4-tetrahydroquin-oline], in assay [1], the “enhancement of hemoglobin production” value turned out to be 142%.

Consider `CCOC(=O)Cc1ccc(NC2CC(C)N(C(C)=O)c3ccc(NS(C)(=O)=O)cc32)cc1` (stereo not drawn) [Compound 99, 1-Acetyl-6-methanesulfonylamino-2-methyl-4-[(4-ethoxycarbonyl-methylphenyl)amino]-1,2,3,4-tetra-hydroquinoline], for which the “enhancement of hemoglobin production” value in assay [1] was 306%.

`CC(=O)N1c2ccc(N3CC(C)OC(C)C3)cc2C(Nc2ccc(NS(C)(=O)=O)cc2)CC1C` (stereo not drawn) [Compound 110, 1-Acetyl-6-[(2,6-dimethyl)-morpholino]-4-[(4-methanesulfonylaminophenyl)-amino]-2-methyl-1,2,3,4-tetrahydroquinoline]: the activity at 3 µM in assay [2] (Homo sapiens) was 207%. As for `CC(=O)N1c2ccc(N3CCN(C(=O)C(C)C)CC3)cc2C(Nc2ccc(NS(C)(=O)=O)cc2)CC1C` (stereo not drawn) [Compound 111, 1-Acetyl-6-[(4-isopropylcarbonyl)-piperazino]-4-[(4-methanesulfonyl-aminophenyl)amino]-2-methyl-1,2,3,4-tetrahydroquinoline], the “enhancement of hemoglobin production” value in assay [1] stood at 171%. On to `CC(=O)N1c2ccc(C(=O)NCCO)cc2C(Nc2ccc(Cl)cc2)CC1C` (stereo not drawn) [Compound 126, 1-Acetyl-4-[(4-chlorophenyl)-amino]-N-(2-hydroxyethyl)-2-methyl-1,2,3,4-tetrahydroquinoline-6-carboxamide], for which the activity at 6 µM in assay [1] was found to be 124%. Also, in assay [2] (Homo sapiens), the activity at 3 µM was found to be 161%.

As for `CC(=O)N1c2ccc(-c3cnc(C)[nH]3)cc2C(Nc2ccc(Cl)cc2)CC1C` (stereo not drawn) [Compound 127, 4-{1-Acetyl-4-[(4-chlorophenyl)-amino]-2-methyl-1,2,3,4-tetra-hydroquinolin-6-yl}-2-methyl-1H-imidazole], the activity at 10 µM in assay [2] (Homo sapiens, HepG2, 48 h, final concentration 10 μM, non-stimulated state = 100%, read-out: enhancement of EPO production) worked out at 130%. In addition, in assay [2] (Homo sapiens), the activity at 3 µM is 96%.

On to `CC(=O)N1c2ccc(C(=O)NC#N)cc2C(Nc2ccc(Cl)cc2)CC1C` (stereo not drawn) [Compound 128, 1-Acetyl-4-[(4-chlorophenyl)-amino]-N-cyano-2-methyl-1,2,3,4-tetrahydroquinoline-6-carboxamide], for which, in assay [1], the activity at 6 µM stood at 120%. The activity at 3 µM in assay [2] (Homo sapiens) came out at 176%. For the molecule `CC(=O)N1c2ccc(C(=O)NO)cc2C(Nc2ccc(Cl)cc2)CC1C` (stereo not drawn) [Compound 129, 1-Acetyl-4-[(4-chlorophenyl)-amino]-N-hydroxy-2-methyl-1,2,3,4-tetrahydroquinoline-6-carboxamide], the activity at 6 µM in assay [1] is 136%. In addition, the activity at 3 µM in assay [2] (Homo sapiens) was found to be 125%. `CC(=O)N1c2ccc(C(=O)Nc3ccccc3)cc2C(Nc2ccc(Cl)cc2)CC1C` (stereo not drawn) [Compound 130, 1-Acetyl-4-[(4-chlorophenyl)-amino]-2-methyl-N-phenyl-1,2,3,4-tetrahydroquinoline-6-carboxamide]: the activity at 6 µM in assay [1] turned out to be 172%. Also, the activity at 3 µM in assay [2] (Homo sapiens) is 133%. In the case of `CC(=O)N1c2ccc(C(=O)Nc3cccnc3)cc2C(Nc2ccc(Cl)cc2)CC1C` (stereo not drawn) [Compound 131, 1-Acetyl-4-[(4-chlorophenyl)-amino]-2-methyl-N-(3-pyridyl)-1,2,3,4-tetrahydroquinoline-6-carboxamide], the activity at 6 µM in assay [1] came to 263%. Moreover, in assay [2] (Homo sapiens), the activity at 3 µM came to 153%.

For the molecule `CNC(=O)c1ccc2c(c1)C(Nc1ccc(N3CCOCC3)cc1)CC(C)N2C(C)=O` (stereo not drawn) [Compound 132, 1-Acetyl-4-[(4-morpholinophenyl)-amino]-N,2-dimethyl-1,2,3,4-tetrahydroquinoline-6-carboxamide], the activity at 6 µM in assay [1] is 198%. For the same molecule, the activity at 3 µM in assay [2] (Homo sapiens) came out at 208%. Regarding `CC(=O)N1c2ccc(C(=O)O)cc2C(Oc2ccc(N3CCOCC3)cc2)CC1C` (stereo not drawn) [Compound 139, 1-Acetyl-2-methyl-4-(4-morpho-linophenoxy)-1,2,3,4-tetrahydro-quinoline-6-carboxylic acid], in assay [1], the activity at 6 µM worked out at 193%. On to `CC(=O)N1c2ccc(C(=O)O)cc2C(Oc2ccc(Cl)cc2)CC1C` (stereo not drawn) [Compound 141, 1-Acetyl-4-(4-chlorophenoxy)-2-methyl-1,2,3,4-tetrahydro-quinoline-6-carboxylic acid], for which the activity at 6 µM in assay [1] was determined as 209%. `CC(=O)N1c2ccc(C(=O)NCCOCCOCCOCCC(=O)OC(C)(C)C)cc2C(Nc2ccc(Cl)cc2)CC1C` (stereo not drawn) [Compound 148, Tert-butyl 12-{1-Acetyl-4-[(4-chlorophenyl)-amino]-2-methyl-1,2,3,4-tetrahydroquinoline-6-carboxamido}-4,7,10-trioxadodecanoate]: the activity at 6 µM in assay [1] amounted to 506%. On to `COC(=O)CCCc1ccc(NC(=O)c2ccc3c(c2)C(Nc2ccc(Cl)cc2)CC(C)N3C(C)=O)cc1` (stereo not drawn) [Compound 150, Methyl 4-{4-{1-Acetyl-4-[(4-chlorophenyl)-amino]-2-methyl-1,2,3,4-tetrahydroquinoline-6-carboxamido}-phenyl}butanoate], for which, in assay [1], the activity at 6 µM is 534%.

In the case of `CCOC(=O)c1ccc2c(c1)C(Nc1ccc(C3CCOCC3)cc1)CC(C)N2C(C)=O` (stereo not drawn) [Compound 153, Ethyl 1-acetyl-2-methyl-4-{[4-(tetrahydro-2H-pyran-4-yl)-phenyl]amino}-1,2,3,4-tetrahydroquinoline-6-carboxylate], the activity at 6 µM in assay [1] was 294%. `CNC(=O)c1ccc2c(c1)C(Nc1ccc(C3CCOCC3)cc1)CC(C)N2C(C)=O` (stereo not drawn) [Compound 155, 1-Acetyl-N,2-dimethyl-4-{[4-(tetrahydro-2H-pyran-4-yl)phenyl]amino}-1,2,3,4-tetrahydroquino-line-6-carboxamide]: the activity at 6 µM in assay [1] stood at 387%. Turning to `CC(=O)N1c2ccc(C(N)=O)cc2C(Nc2ccc(C3CCOCC3)cc2)CC1C` (stereo not drawn) [Compound 156, 1-Acetyl-2-methyl-4-{[4-(tetrahydro-2H-pyran-4-yl)phenyl]amino}-1,2,3,4-tetrahydroquinoline-6-carboxamide], the activity at 6 µM in assay [1] is 371%. With `CC(=O)N1c2ccc(N3CCN(C(C)C)CC3)cc2C(Nc2ccc(N3CCOCC3)cc2)CC1C` (stereo not drawn) [Compound 159, 1-Acetyl-6-(4-isopropylpiperazin-1-yl)-2-methyl-4-[(4-morpholinophenyl)-amino]-1,2,3,4-tetrahydroquinoline], the activity at 3 µM in assay [2] (Homo sapiens) stood at 292%.

With `CNC(=O)c1ccc2c(c1)C(Nc1ccc(-c3ncco3)cc1)CC(C)N2C(C)=O` (stereo not drawn) [Compound 170, 1-Acetyl-N,2-dimethyl-4-{[4-(oxazol-2-yl)phenyl]-amino}-1,2,3,4-tetrahydroquinoline-6-carboxamide], the activity at 3 µM in assay [2] (Homo sapiens) is 128%.

`CNC(=O)c1ccc2c(c1)C(Nc1cccc(N3CCOCC3)c1)CC(C)N2C(C)=O` (stereo not drawn) [Compound 180, 1-Acetyl-N,2-dimethyl-4-[(3-morpholinophenyl)amino]-1,2,3,4-tetrahydroquinoline-6-carboxamide]: in assay [1], the activity at 6 µM turned out to be 150%.
